Holding throughout (test): growth of human tumour cells (NCI), 48 h
Assay [1] has as its system A498.
In assay [2] the test system is A549.
The subject of assay [3] is CAKI-1.
Assay [4] deals with EKVX.
Assay [5] concerns HCC 2998.
In assay [6] the test system is HL-60.
For assay [7], the system named is HOP-92.
The test system of assay [8] is MCF7.
For assay [9], the system named is MDA-MB-435.
Assay [10] concerns Malme-3M.
The test system of assay [11] is NCI/ADR-RES.
Assay [12] concerns OVCAR-3.
Assay [13] deals with OVCAR-4.
The test system of assay [14] is OVCAR-8.
Assay [15] has as its system RPMI-8226.
Assay [16] relates to RXF 393.
Assay [17] concerns SF-268.
Assay [18] relates to SK-MEL-2.
The subject of assay [19] is SK-OV-3.
The test system of assay [20] is SW-620.

The structures appear in SMILES notation.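 Assay format: 96-well plates, 48-hour exposure. Abbreviation: GI50, concentration required for 50% inhibition of growth.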 Activity calls are given as the source filed them. Rule as the data show it: active = GI50 up to about 1.1 µM and inactive = higher. Some results are limits rather than exact numbers.

For `COC(=O)C1OC(O[C@H]2CC[C@]3(C)[C@H]4CC=C5[C@@H]6CC(C)(C)CC[C@]6(C(=O)OC6OCC(O)C(O)C6OC6OC(C)C(OC7OCC(O)C(O)C7O)C(OC7OCC(O)(CO)C7O)C6O)[C@H](O)C[C@@]5(C)[C@]4(C)CC[C@H]3C2(C)C)C(O)C(O)C1O` (some centres not stated), the GI50 in assay [1] was 1.76 µM (inactive); in [2], 3.52 µM (inactive); in [3], 4.69 µM (inactive); in assay [4], 2.77 µM (inactive); in assay [5], 2.29 µM (inactive); in assay [6], 2.35 µM (inactive). The GI50 in assay [7] is 1.83 µM (inactive); in assay [8] it was 1.38 µM (inactive); in [9] it was 1.89 µM (inactive); in assay [10], 4.14 µM (inactive); in [11], 4.91 µM (inactive); in assay [12], 8.63 µM (inactive). Besides, the GI50 was 4.98 µM (inactive) in assay [13]; 10.5 µM (inactive) in [14]; 3.86 µM (inactive) in assay [15]; 10.9 µM (inactive) in assay [16]; 10 µM (inactive) in [17]; 2.56 µM (inactive) in [18]. For the same compound, the GI50 is 12.2 µM (inactive) in assay [19] and 6.28 µM (inactive) in assay [20].

For `COC1=CC(=O)c2c(c(-c3csc(C)n3)cn2C)C1=O`, the GI50 is 22.5 µM (inactive) in assay [1]; 2.15 µM (inactive) in [2]; 29.3 µM (inactive) in [3]; 20 µM (inactive) in assay [4]; 10.9 µM (inactive) in assay [5]; 2.13 µM (inactive) in assay [6]. Also, the GI50 in assay [7] was > 100 µM (inactive); in assay [8], 21.7 µM (inactive); in assay [9], 13.8 µM (inactive); in assay [11], 22 µM (inactive); in [12], 9.14 µM (inactive); in assay [13] it was 58.2 µM (inactive). Besides, the GI50 in [14] is 22.6 µM (inactive); in assay [15], 5.24 µM (inactive); in [16] it was 18.3 µM (inactive); in [17], 27.2 µM (inactive); in assay [18] it was 17.1 µM (inactive); in assay [19] it was 57.3 µM (inactive). In assay [20], the GI50 was 35.9 µM (inactive).

With `CCCCCN(CCCCC)CC(C)(C)C(O)c1ccc(OC)c2ccccc12` (configuration not stated), the GI50 in assay [1] was 14.3 µM (inactive); in assay [2], 9.2 µM (inactive); in assay [3], 11.6 µM (inactive); in [4], 12.1 µM (inactive); in assay [5], 3.52 µM (inactive); in [6], 3.77 µM (inactive). The GI50 in assay [7] is 2.53 µM (inactive); in [8], 5.13 µM (inactive); in assay [9], 10.8 µM (inactive); in [10] it was 14.1 µM (inactive); in [11], 7.05 µM (inactive); in assay [12], 8.34 µM (inactive). Further, the GI50 in assay [13] was 11.1 µM (inactive); in [14] it was 10.5 µM (inactive); in assay [15], 4.15 µM (inactive); in [16] it was 7.78 µM (inactive); in [17], 13.3 µM (inactive); in assay [18], 18.2 µM (inactive). The GI50 in assay [20] was 10 µM (inactive).

On to `COc1ccc(/N=C2\C(=O)Nc3ccc(Br)cc32)cc1`, for which the GI50 in [1] is 38.8 µM (inactive); in assay [2] it was 24.2 µM (inactive); in assay [3] it was 14.4 µM (inactive); in assay [4], 17.2 µM (inactive); in assay [5], 19.2 µM (inactive); in assay [6], 15.6 µM (inactive). Also, the GI50 is 18.2 µM (inactive) in [7]; 14.6 µM (inactive) in [8]; 13.2 µM (inactive) in [9]; 19.8 µM (inactive) in assay [10]; 18.7 µM (inactive) in [11]; 21.7 µM (inactive) in assay [12]. Besides, the GI50 in assay [14] was 14.9 µM (inactive); in [15] it was 5.83 µM (inactive); in [16] it was 18.2 µM (inactive); in [17] it was 18.4 µM (inactive); in assay [19] it was 24.3 µM (inactive); in assay [20], 16 µM (inactive).

As for `Cc1cc(N)ccc1/N=N\c1ccc(S(=O)(=O)CCOS(=O)(=O)O)cc1`, the GI50 in assay [1] was 11.2 µM (inactive); in assay [2] it was 3.78 µM (inactive); in assay [3], 1.88 µM (inactive); in [4], 27 µM (inactive); in assay [5] it was 2.01 µM (inactive); in assay [6] it was 0.948 µM (active). Further, the GI50 is 5.02 µM (inactive) in assay [7]; 0.614 µM (active) in assay [8]; 0.216 µM (active) in assay [9]; 1.99 µM (inactive) in assay [10]; 0.41 µM (active) in assay [11]; 3.45 µM (inactive) in assay [12]. For the same compound, the GI50 in [13] is 10.5 µM (inactive); in assay [14], 0.356 µM (active); in [15], 1 µM (active); in [16], 10.8 µM (inactive); in assay [17], 6.11 µM (inactive); in [18] it was 0.605 µM (active). The GI50 in [20] is 0.368 µM (active).

Consider `O=C(O)c1ccc(OCc2ccccc2)c(Cl)c1`, for which the GI50 in assay [1] was > 100 µM (inactive); in [2], > 100 µM (inactive); in assay [3], 20.2 µM (inactive); in [4] it was > 100 µM (inactive); in [6] it was > 100 µM (inactive); in [7], > 100 µM (inactive). The GI50 in assay [8] was > 100 µM (inactive); in assay [9], 80.5 µM (inactive); in assay [10] it was > 100 µM (inactive); in assay [11] it was > 100 µM (inactive); in assay [12] it was > 100 µM (inactive); in assay [13], 14 µM (inactive). Also, the GI50 in assay [14], in assay [15], in assay [16], in assay [17], in [18] and in assay [19] was > 100 µM (inactive) in each case. The GI50 in assay [20] is > 100 µM (inactive).

Consider `N[C@@H]1CCN(c2c(F)cc3c(=O)c(C(=O)O)cn4c3c2Oc2c-4ccc3c2ccc2ccccc23)C1`, for which the GI50 is 11.9 µM (inactive) in [1]; 2.39 µM (inactive) in assay [2]; 6.53 µM (inactive) in assay [3]; 0.857 µM (active) in [4]; 0.494 µM (active) in assay [5]; 5.16 µM (inactive) in [6]. Further, the GI50 in [7] is 2.13 µM (inactive); in [8] it was 0.667 µM (active); in [9], 3.03 µM (inactive); in assay [11], 23.2 µM (inactive); in [12] it was 21.5 µM (inactive); in assay [13], 1.17 µM (inactive). The GI50 was 1.38 µM (inactive) in [14]; 0.396 µM (active) in [15]; 1.2 µM (inactive) in assay [16]; 5.73 µM (inactive) in assay [17]; 7.8 µM (inactive) in [18]; 7.46 µM (inactive) in assay [19]. In addition, the GI50 in [20] is 0.671 µM (active).

In the case of `CCCCn1c(N)c(-c2nc3ccccc3o2)sc1=S`, the GI50 in assay [1] was 31.8 µM (inactive); in assay [2] it was 13.6 µM (inactive); in assay [3], 13.7 µM (inactive); in [4], 21.8 µM (inactive); in assay [5] it was 36.1 µM (inactive); in assay [6] it was > 100 µM (inactive). Moreover, the GI50 was 45.5 µM (inactive) in assay [7]; 24.7 µM (inactive) in assay [8]; 12.6 µM (inactive) in [9]; 16.3 µM (inactive) in [10]; 18.2 µM (inactive) in [11]; 16.7 µM (inactive) in assay [12]. In addition, the GI50 in assay [13] was 5.81 µM (inactive); in assay [14] it was 17.5 µM (inactive); in [15], 21.7 µM (inactive); in assay [16], 36.7 µM (inactive); in assay [17], 16.4 µM (inactive); in assay [18], 13.4 µM (inactive). Further, the GI50 in assay [19] was 22.7 µM (inactive).

Turning to `C#CCN(CC#C)C(=O)C(=O)c1c[nH]c2ccc(OC)cc12`, the GI50 was 15.1 µM (inactive) in assay [1]; 25.7 µM (inactive) in assay [2]; 32.4 µM (inactive) in assay [4]; 16.9 µM (inactive) in assay [5]; 3.99 µM (inactive) in assay [6]; 14.2 µM (inactive) in [7]. Also, the GI50 in assay [8] was 18.6 µM (inactive); in assay [9], 18.5 µM (inactive); in assay [10], 17.2 µM (inactive); in [11] it was 21.8 µM (inactive); in assay [13], > 10 µM (inactive); in assay [14] it was 22 µM (inactive). The GI50 in [15] was 10.6 µM (inactive); in [16], 16.3 µM (inactive); in assay [17], 29.5 µM (inactive); in assay [19], 17.8 µM (inactive); in assay [20] it was 20.3 µM (inactive).

As to `O=C(N/N=C/c1ccc(Cl)cc1)c1c(Cl)c(Cl)c(Cl)c(Cl)c1-c1nc2ccccc2[nH]1`, the GI50 in assay [1] is 98.2 µM (inactive); in [2], > 100 µM (inactive); in assay [3], 46.2 µM (inactive); in assay [4], 16.9 µM (inactive); in [5], 5.5 µM (inactive); in assay [6], > 100 µM (inactive). Besides, the GI50 is 23.6 µM (inactive) in [7]; 16.2 µM (inactive) in assay [8]; 74.3 µM (inactive) in [9]; > 100 µM (inactive) in assay [10]; > 100 µM (inactive) in [11]; > 100 µM (inactive) in assay [12]. Also, the GI50 in assay [15] is 22.2 µM (inactive); in assay [16] it was 33 µM (inactive); in assay [17], > 100 µM (inactive); in assay [18] it was 93.1 µM (inactive); in [19], 0.0454 µM (active); in assay [20], > 100 µM (inactive).

The values above are taken from ChEMBL document CHEMBL1201862, “PubChem BioAssay data set” (2004).
